Common to all, as to type: cell-based
One test concerns HeLa cells. The test is described as follows: 72 h Cell Titer Glo viability, HeLa. Set-up: AUC: unit not given beside the values. The method, then:
(§1) To measure cancer cell death in response to 6-(4-(diethylamino)-3-nitrophenyl)-5-methyl-4,5-dihydropyridazin-3(2H)-one (DN/DP) treatment, cells were plated in 384w assay plates at the following cell density per well: 500 cells of HeLa (DMEM), A2058 (DMEM), HMCB (EMEM), IGR37 (DMEM), NCIH1734 (RPMI), 750 cells of CAL51 (DMEM), COL0741 (RPMI), DKMG (RPMI), GB1 (EMEM), HEL (RPMI), HEL9217 (RPMI), JHUEM1 (DMEM+F12), L3.3 (RPMI) and TE4 (RPMI), HCC15 (RPMI), UACC257 (RPMI), 1000 cells for HUT78 (IMEM), NCIH1563 (RPMI), NCIH2122 (RPMI), NCIH2172 (RPMI), RVH421 (RPMI) and SKMEL3 (McCoy's 5A), 1500 cells for C32 (EMEM), HS578T (DMEM) and JHOM1 (DMEM+F12). Cells were incubated at 37° C. overnight and then treated with a DNMDP dose dilution series using an HP D300 digital dispenser. After 72 hours, the viability of cells in each well were measured by Cell Titer Glo (Promega G755B and G756B). Percent viability values were determined using the values from untreated wells and AUC values were calculated using a 4-parameter fit. DNMDP was purchased from Life Chemicals (F1638-0042) and trequinsin was purchased from Sigma-Aldrich (T2057).
(§2) PDE3A CRISPR KO cells (sgRNA #2) were generated according to de Waal et al, 2016 (2), hereby incorporated by reference in its entirety. CRISPR target sites for PDE3B and AIP were identified using the CHOPCHOP CRISPR Design Tool (chopchop.cbu.uib.no). For cloning of sgRNAs, forward and reverse oligos were annealed, phosphorylated and ligated into a BsmBI-digested lentiCRISPRv2 vector. Lentivirus carrying each guide construct was packaged as described above and used to infect target cells. Transduced target cells were selected using 1 μg/ml puromycin and passaged for 7 days before use.

For another test, the target named is T1, PDE3A-SLFN12 complex (Homo sapiens, UniProt Q14432).
T1 construct: immunoprecipitated endogenous PDE3A; endogenous in cells; host or cells: HeLa cells, parental or AIP CRISPR knockout; PDE3A is endogenous; SLFN12 is ectopically expressed
T1 sequence (Q14432 whole entry): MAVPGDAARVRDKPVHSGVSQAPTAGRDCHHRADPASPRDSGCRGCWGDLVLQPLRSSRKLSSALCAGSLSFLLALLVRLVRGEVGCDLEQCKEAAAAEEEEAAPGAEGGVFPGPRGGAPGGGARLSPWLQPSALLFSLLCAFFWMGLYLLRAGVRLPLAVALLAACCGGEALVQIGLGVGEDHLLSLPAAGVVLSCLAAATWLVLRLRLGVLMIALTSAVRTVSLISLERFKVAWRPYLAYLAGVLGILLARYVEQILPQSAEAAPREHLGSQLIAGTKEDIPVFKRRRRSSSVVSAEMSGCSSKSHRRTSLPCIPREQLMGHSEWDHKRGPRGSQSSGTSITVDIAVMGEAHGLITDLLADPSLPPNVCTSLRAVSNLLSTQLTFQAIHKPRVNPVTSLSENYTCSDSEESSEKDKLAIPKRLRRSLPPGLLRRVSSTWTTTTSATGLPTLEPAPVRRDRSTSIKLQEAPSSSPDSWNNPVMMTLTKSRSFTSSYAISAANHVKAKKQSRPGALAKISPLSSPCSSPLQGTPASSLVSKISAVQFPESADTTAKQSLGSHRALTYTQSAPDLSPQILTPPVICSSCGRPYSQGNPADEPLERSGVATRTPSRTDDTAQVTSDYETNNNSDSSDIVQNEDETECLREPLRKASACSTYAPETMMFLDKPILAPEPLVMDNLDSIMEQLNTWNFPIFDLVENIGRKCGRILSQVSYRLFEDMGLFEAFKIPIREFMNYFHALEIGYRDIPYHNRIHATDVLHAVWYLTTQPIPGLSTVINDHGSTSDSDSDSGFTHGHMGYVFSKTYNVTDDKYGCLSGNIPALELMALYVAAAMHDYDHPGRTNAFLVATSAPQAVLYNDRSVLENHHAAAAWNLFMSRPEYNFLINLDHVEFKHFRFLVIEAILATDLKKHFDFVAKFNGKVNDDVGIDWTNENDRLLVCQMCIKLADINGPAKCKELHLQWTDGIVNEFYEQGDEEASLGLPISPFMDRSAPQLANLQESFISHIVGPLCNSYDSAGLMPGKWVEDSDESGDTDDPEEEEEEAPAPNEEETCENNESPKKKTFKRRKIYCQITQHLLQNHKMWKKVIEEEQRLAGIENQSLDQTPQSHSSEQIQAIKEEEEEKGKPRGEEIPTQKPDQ
T1 sequence (Q8IYM2 whole entry partner): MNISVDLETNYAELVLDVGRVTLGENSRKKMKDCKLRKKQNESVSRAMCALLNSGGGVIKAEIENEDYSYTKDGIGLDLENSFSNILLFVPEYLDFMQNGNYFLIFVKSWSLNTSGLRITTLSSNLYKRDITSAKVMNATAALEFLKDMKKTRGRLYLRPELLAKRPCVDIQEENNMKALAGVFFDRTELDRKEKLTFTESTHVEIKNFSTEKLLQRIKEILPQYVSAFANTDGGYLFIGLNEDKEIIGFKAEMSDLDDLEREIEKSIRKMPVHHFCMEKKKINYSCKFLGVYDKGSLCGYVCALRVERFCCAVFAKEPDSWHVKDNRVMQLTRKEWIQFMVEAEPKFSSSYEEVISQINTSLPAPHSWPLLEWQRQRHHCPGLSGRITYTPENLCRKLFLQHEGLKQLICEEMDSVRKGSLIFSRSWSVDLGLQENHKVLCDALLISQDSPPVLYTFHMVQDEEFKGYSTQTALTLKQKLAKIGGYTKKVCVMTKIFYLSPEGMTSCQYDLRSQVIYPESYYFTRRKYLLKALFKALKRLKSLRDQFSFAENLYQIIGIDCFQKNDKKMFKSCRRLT
The experiment in a line: PDE3A immunoprecipitation / immunoblot for PDE3A-SLFN12 complex formation in HeLa cells. Conditions: for complex formation between PDE3A and FLAG-tagged SLFN12 with AIP knocked out (FIG. 8B) / complex formation between PDE3A and FLAG-tagged SLFN12 (FIG. 8B): HeLa cells, anti-PDE3A pull down, 10 μM compound; for complex formation between PDE3A and FLAG-tagged SLFN12 with AIP knocked out (FIG. 8B): AIP Crispr knockout (KO sg2, KO sg3). As for the experimental part:
Because decreased PDE3A protein expression could impact DNMDP-induced PDE3A-SLFN12 complex formation, the effects of AIP knockout on this complex formation were also measured. As there is no good antibody for SLFN12 protein, we ectopically expressed V5-tagged SLFN12 in parental or AIP-knockout HeLa cells, immunoprecipitated endogenous PDE3A, and assessed whether V5-SLFN12 could be detected in the immunoprecipatites. Cells were plated in 10 cm petri dishes and collected at 50-90% confluence. For PDE3A immunoblotting in biomarker positive cells and in AIP KO cells, cells were seeded in 15 cm plates at similar density as in viability assays with a vessel scaling factor of 5000, e.g., 500 cells per well was scaled to 10^6 cells per 10 cm plate or 2.5×10^6 cells per 15 cm plate, and then cultured for 72 hours before collection. Cell pellets were lysed at 4° C. for 20 minutes in modified RIPA buffer (150 mM NaCl, 10% glycerol, 50 mM Tris-Cl pH 8.0, 50 mM MgCl2, 1% NP-40) supplemented with EDTA-free protease inhibitors (Sigma-Aldrich 4693159001) and PhosSTOP phosphatase inhibitors (Sigma-Aldrich 4906837001). Lysates were clarified by centrifugation at 13,000 rpm×10 min at 4° C. and quantified using BCA protein assays (Thermo Fisher Scientific 23225). Clarified lysates were resolved on 4-12% Bis-Tris PAGE gels, transferred to nitrocellulose membranes (Thermo Fisher Scientific IB23001) and immunoblotted with primary antibodies against PDE3A (Bethyl 302-740A, 1:2000), V5 (Life Technologies R96205 at 1:5,000), AIP (Thermo Fisher Scientific MA3-16515 at 1:2000), Vinculin (Sigma-Aldrich V9264 at 1:5,000), GAPDH (Cell Signaling Technology 2118 at 1:2000) and secondary antibodies from LiCOR Biosciences (92632210 and 926068021, each at 1:10,000). Blots were washed and imaged using a LiCOR Odyssey infrared imager, and fluorescent signals quantified using the Image Studio software provided by the LiCOR manufacturer.

The subject of a further test is IGR37 melanoma cell line. The test is described as follows: 72 h Cell Titer Glo viability, IGR37. Set-up: unit not given beside the values. Conditions: 72 h Cell Titer Glo dose response, AUC on a scale from 0-4. As for the experimental part: as §1
For test [1], the system named is COLO741 melanoma cell line. The experiment in a line: 72 h Cell Titer Glo viability, COLO741. Further details: unit not given beside the values. Conditions: 72 h Cell Titer Glo dose response, AUC on a scale from 0-4. The method, then: as §1
The test system of test [2] is SKMEL3 melanoma cell line. The experiment in a line: 72 h Cell Titer Glo viability, SKMEL3. Set-up: unit not given beside the values. Particulars: 72 h Cell Titer Glo dose response, AUC on a scale from 0-4. The method, then:
as §1

Another test deals with HMCB melanoma cell line. The experiment in a line: 72 h Cell Titer Glo viability, HMCB. Set-up: unit not given beside the values. Conditions: 72 h Cell Titer Glo dose response, AUC on a scale from 0-4. As for the experimental part: as §1
The test system of the next test is A2058 melanoma cell line. The test is described as follows: 72 h Cell Titer Glo viability, A2058. Set-up: unit not given beside the values. Conditions: 72 h Cell Titer Glo dose response, AUC on a scale from 0-4. The method, then:
as §1
PDE3A CRISPR KO cells (sgRNA #2) were generated according to de Waal et al, 2016 (2), hereby incorporated by reference in its entirety. CRISPR target sites for PDE3B and AIP were identified using the CHOPCHOP CRISPR Design Tool (chopchop.cbu.uib.no). […]

The next test has as its system C32 melanoma cell line. The test is described as follows: 72 h Cell Titer Glo viability, C32. Further details: AUC: unit not given beside the values. As for the experimental part: as §1
For test [3], the system named is UACC257 melanoma cell line. The experiment in a line: 72 h Cell Titer Glo viability, UACC257. Further details: AUC: unit not given beside the values. As for the experimental part: as §1
The test system of test [4] is RVH421 melanoma cell line. The test is described as follows: 72 h Cell Titer Glo viability, RVH421. The method, then:
as §1

Test [5] has as its system A2058 and SKMEL3 cells with CRISPR KO of SLFN12. The experiment in a line: 72 h Cell Titer-Glo survival of cells with CRISPR KO of SLFN12. Particulars: CRISPR KO of SLFN12 (sg4). As for the experimental part: A2058 and SKMEL3 are representative melanoma cell lines. Survival is measured with a 72 h Cell Titer-Glo assay and CRISPR was performed with sg4, SLFN12 CRISPR guide RNA #4.
as §2
FIG. 3A illustrates the survival of cells in the presence of DNMDP that have had CRISPR knockout of SLFN12. FIG. 3B illustrates the survival of cells in the presence of DNMDP that have had CRISPR knockout of PDE3A (with and without ectopic expression of PDE3B). […] The survival in FIGS. 3A and 3B was measured with a 72 h Cell Titer-Glo assay and CRISPR was performed with sg4, SLNF12 CRISPR guide RNA #4.

On to `C[C@@H]1OC(=O)NN=C1c1ccc(-c2ccc(F)cc2)c(C(F)(F)F)c1` [Compound X, (6S)-5-[4′-fluoro-2-(trifluoromethyl)biphenyl-4-yl]-6-methyl-3,6-dihydro-2H-1,3,4-oxadiazin-2-one], for which the “cancer cell killing in cells lacking AIP (FIG. 8A)” value in the test on HeLa cells (HeLa cells having an AIP knock out (KOsg2, KOsg3)) is reported as “no cancer cell killing was observed”. In the test with HeLa cells (HeLa cells, increasing concentrations), the “cervical cancer cell viability (FIG. 8A)” value is recorded as “reduced at increasing concentrations”. Moreover, at PDE3A-SLFN12 complex, the “complex formation between PDE3A and FLAG-tagged SLFN12 with AIP knocked out (FIG. 8B)” value is listed as “not observed”; the “complex formation between PDE3A and FLAG-tagged SLFN12 (FIG. 8B)” value is listed as “induced”.
Take `CCN(CC)c1ccc(C2=NNC(=O)CC2C)cc1[N+](=O)[O-]` (stereo not shown) [DNMDP, 6-(4-(diethylamino)-3-nitrophenyl)-5-methyl-4,5-dihydropyridazin-3(2H)-one]: the AUC in the test on HeLa cells (HeLa (cervical), 72 h Cell Titer Glo dose response, AUC on a scale from 0-4) is recorded as 0.36; with IGR37 melanoma cell line, 1.17; in [1], 1.19; in [2], 1.74; with HMCB melanoma cell line, 1.85; in the test on A2058 melanoma cell line it was 2.11. In addition, the AUC with C32 melanoma cell line (C32 (melanoma), 72 h Cell Titer Glo dose response, AUC on a scale from 0-4) came out at 3.13; in [3] (UACC257 (melanoma, lacks AIP expression), 72 h Cell Titer Glo dose response, AUC on a scale from 0-4), 4.00; in test [4] (RVH421 (melanoma, PDE3B/SLFN12 biomarker-positive), 72 h Cell Titer Glo dose response, AUC on a scale from 0-4), 3.02. In addition, the “cell response after AIP knockout (FIG. 6A)” value with HeLa cells (HeLa cells, AIP CRISPR knockout with independent gRNAs, 72-hour Cell Titer-Glo) is “AIP knockout eliminates HeLa cell response”. For the same compound, the “sensitivity in PDE3A knockout cells with ectopic PDE3B expression (FIG. 3B)” value in the test with HeLa cells (PDE3A knockout HeLa cells, ectopic expression of PDE3B, 72 h Cell Titer-Glo) is on record as “support DNMDP sensitivity”. In addition, the “sensitivity of cell line (dose response, FIG. 2A)” value was “only partially sensitive” with C32 melanoma cell line (C32 cells, 72 h Cell Titer-Glo); “completely insensitive” in [3] (UACC257 cells, 72 h Cell Titer-Glo); “only partially sensitive” in [4] (RVH421 cells, 72 h Cell Titer-Glo). At PDE3A-SLFN12 complex (AIP-knockout HeLa cells, V5-tagged SLFN12, PDE3A immunoprecipitates, 10 μM), the “PDE3A-SLFN12 complex formation after AIP knockout (FIG. 7)” value is listed as “completely abolished”. Further, the “complex formation between PDE3A and FLAG-tagged SLFN12 with AIP knocked out (FIG. 8B)” value at PDE3A-SLFN12 complex is “not observed”. Further, the “complex formation between PDE3A and FLAG-tagged SLFN12 (FIG. 8B)” value on PDE3A-SLFN12 complex was “induced”. In addition, the “sensitivity after SLFN12 knockout (FIG. 3A)” value in [5] is reported as “SLFN12 knockout abrogates all measured sensitivity”.

(Values after US12325880B2, “Identification of PDE3 modulator responsive cancers” (THE BROAD INSTITUTE, INC., priority 2018, dated 2025).)
